Experimental data as given in patent US20190345150A1, “MICROBIOCIDAL OXADIAZOLE DERIVATIVES” (SYNGENTA PARTICIPATIONS AG, priority 2016, published 2019).

How the values were obtained:
[1] = tested on: Puccinia recondita f. Sp. Tritici; assay: Puccinia recondita f. sp. tritici / wheat / leaf disc preventative (brown rust); type: in vivo; conditions: foliar, 200 ppm in the applied formulation, wheat leaf segments cv. Kanzler, preventative (inoculated 1 day after application), compared to untreated control, read-out: disease control
Procedure: Leaf disks or leaf segments of various plant species are cut from plants grown in a greenhouse. The cut leaf disks or segments are placed in multiwell plates (24-well format) onto water agar. The leaf disks are sprayed with a test solution before (preventative) or after (curative) inoculation. Compounds to be tested are prepared as DMSO solutions (max. 10 mg/ml) which are diluted to the appropriate concentration with 0.025% Tween20 just before spraying. The inoculated leaf disks or segments are incubated under defined conditions (temperature, relative humidity, light, etc.) according to the respective test system. A single evaluation of disease level is carried out 3 to 14 days after inoculation, depending on the pathosystem. Percent disease control relative to the untreated check leaf disks or segments is then calculated. Wheat leaf segments cv. Kanzler were placed on agar in multiwell plates (24-well format) and sprayed with the formulated test compound diluted in water. The leaf disks were inoculated with a spore suspension of the fungus 1 day after application. The inoculated leaf segments were incubated at 19° C. and 75% relative humidity (rh) under a light regime of 12 hours light/12 hours darkness in a climate cabinet and the activity of a compound was assessed as percent disease control compared to untreated when an appropriate level of disease damage appears in untreated check leaf segments (7 to 9 days after application).

[2] = tested on: Puccinia recondita f. Sp. Tritici; assay: Puccinia recondita f. sp. tritici / wheat / leaf disc curative (brown rust); type: in vivo; conditions: foliar, 24 h, 200 ppm in the applied formulation, wheat leaf segments cv. Kanzler, curative (applied 1 day after inoculation), compared to untreated control, read-out: disease control
Procedure: Leaf disks or leaf segments of various plant species are cut from plants grown in a greenhouse. The cut leaf disks or segments are placed in multiwell plates (24-well format) onto water agar. The leaf disks are sprayed with a test solution before (preventative) or after (curative) inoculation. Compounds to be tested are prepared as DMSO solutions (max. 10 mg/ml) which are diluted to the appropriate concentration with 0.025% Tween20 just before spraying. The inoculated leaf disks or segments are incubated under defined conditions (temperature, relative humidity, light, etc.) according to the respective test system. A single evaluation of disease level is carried out 3 to 14 days after inoculation, depending on the pathosystem. Percent disease control relative to the untreated check leaf disks or segments is then calculated. Wheat leaf segments cv. Kanzler are placed on agar in multiwell plates (24-well format). The leaf segments are then inoculated with a spore suspension of the fungus. Plates were stored in darkness at 19° C. and 75% relative humidity. The formulated test compound diluted in water was applied 1 day after inoculation. The leaf segments were incubated at 19° C. and 75% relative humidity under a light regime of 12 hours light/12 hours darkness in a climate cabinet and the activity of a compound was assessed as percent disease control compared to untreated when an appropriate level of disease damage appears in untreated check leaf segments (6 to 8 days after application).

Phakopsora pachyrhizi = Phakopsora pachyrhizi / soybean / leaf disc preventative (Asian soybean rust); type: in vivo; conditions: foliar, 200 ppm in the applied formulation, soybean leaf disks, preventative (inoculated 1 day after application), compared to untreated control, read-out: disease control
Procedure: Leaf disks or leaf segments of various plant species are cut from plants grown in a greenhouse. The cut leaf disks or segments are placed in multiwell plates (24-well format) onto water agar. The leaf disks are sprayed with a test solution before (preventative) or after (curative) inoculation. Compounds to be tested are prepared as DMSO solutions (max. 10 mg/ml) which are diluted to the appropriate concentration with 0.025% Tween20 just before spraying. The inoculated leaf disks or segments are incubated under defined conditions (temperature, relative humidity, light, etc.) according to the respective test system. A single evaluation of disease level is carried out 3 to 14 days after inoculation, depending on the pathosystem. Percent disease control relative to the untreated check leaf disks or segments is then calculated. Soybean leaf disks are placed on water agar in multiwell plates (24-well format) and sprayed with the formulated test compound diluted in water. One day after application leaf discs are inoculated by spraying a spore suspension on the lower leaf surface. After an incubation period in a climate cabinet of 24-36 hours in darkness at 20° C. and 75% rh leaf disc are kept at 20° C. with 12 h light/day and 75% rh. The activity of a compound is assessed as percent disease control compared to untreated when an appropriate level of disease damage appears in untreated check leaf disks (12 to 14 days after application).

[3] = tested on: Glomerella laqenarium (Colletotrichum laqenarium); assay: Glomerella lagenarium liquid culture / cucumber / preventative (anthracnose); type: cell-based; conditions: 20 ppm in the applied formulation, liquid culture in PDB, growth inhibition measured photometrically 3 to 4 days after application, compared to untreated control, read-out: disease control
Procedure: Mycelia fragments or conidia suspensions of a fungus prepared either freshly from liquid cultures of the fungus or from cryogenic storage, are directly mixed into nutrient broth. DMSO solutions of the test compound (max. 10 mg/ml) are diluted with 0.025% Tween20 by a factor of 50 and 10 μl of this solution is pipetted into a microtiter plate (96-well format). The nutrient broth containing the fungal spores/mycelia fragments is then added to give an end concentration of the tested compound. The test plates are incubated in the dark at 24° C. and 96% relative humidity. The inhibition of fungal growth is determined photometrically after 2 to 7 days, depending on the pathosystem, and percent antifungal activity relative to the untreated check is calculated. Conidia of the fungus from cryogenic storage are directly mixed into nutrient broth (PDB—potato dextrose broth). After placing a (DMSO) solution of test compound into a microtiter plate (96-well format), the nutrient broth containing the fungal spores is added. The test plates are incubated at 24° C. and the inhibition of growth is measured photometrically 3 to 4 days after application.

melting point: 113.3 to 114.2 °C
SMILES: Cn1nnnc1OCc1ccc(-c2noc(C(F)(F)F)n2)cc1 [Compound 1.8, 3-[4-[(1-methyltetrazol-5-yl)oxymethyl]phenyl]-5-(trifluoromethyl)-1,2,4-oxadiazole]
pest or weed control at 200 ppm [1]: ≥ 80%
pest or weed control at 200 ppm [2]: ≥ 80%
pest or weed control at 200 ppm (Phakopsora pachyrhizi): ≥ 80%
inhibition of growth at 20 ppm [3]: ≥ 80%
